{
  "source": "patent US20210386733A1",
  "about": "“LYSINE-SPECIFIC HISTONE DEMETHYLASE INHIBITORS FOR THE TREATMENT OF MYELOPROLIFERATIVE NEOPLASMS” (Imago Biosciences, Inc., priority 2019, published 2021)",
  "origin": "cited, not measured here",
  "tested_on": "primary myelofibrosis patients",
  "conditions": "50 to 100 mg/day in combination with prednisone; cited from earlier work",
  "data": [
    {"compound": "O=C1CCC(N2C(=O)c3ccccc3C2=O)C(=O)N1", "note": "(centres unmarked) [Thalidomide]", "values": [
      {"measurement": "patients with improved anemia and thrombocytopenia", "result": "approximately 60%"},
      {"measurement": "patients with reduced spleen size", "result": "approximately 20%"}
    ]}
  ]
}
